Test results published in ChEMBL document CHEMBL1201862, “PubChem BioAssay data set” (2004).
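Following 48 hours of exposure in 96-well plates, responses at five concentrations were used to interpolate endpoints linearly. Here, GI50 denotes the concentration required for 50% inhibition of growth.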 Activity calls are given as the source filed them. No stated cut-off is given here; in the data, active = GI50 up to about 1.1 µM and inactive = higher.

Experiments:
Assay in all cases: NCI tumour cell line growth inhibition, 48 h
ACHN = system: ACHN
UO-31 = system: UO-31
SK-MEL-28 = system: SK-MEL-28
SF-295 = system: SF-295
MCF7 = system: MCF7
MDA-MB-435 = system: MDA-MB-435
HOP-92 = system: HOP-92
OVCAR-4 = system: OVCAR-4
A498 = system: A498
NCI-H226 = system: NCI-H226
Malme-3M = system: Malme-3M
RXF 393 = system: RXF 393
EKVX = system: EKVX
SNB-19 = system: SNB-19
NCI-H23 = system: NCI-H23
HL-60 = system: HL-60
MOLT-4 = system: MOLT-4
HCC 2998 = system: HCC 2998
PC-3 = system: PC-3
CAKI-1 = system: CAKI-1

Row | Structure (SMILES) | GI50 (ACHN) | GI50 (UO-31) | GI50 (SK-MEL-28) | GI50 (SF-295) | GI50 (MCF7) | GI50 (MDA-MB-435) | GI50 (HOP-92) | GI50 (OVCAR-4) | GI50 (A498) | GI50 (NCI-H226) | GI50 (Malme-3M) | GI50 (RXF 393) | GI50 (EKVX) | GI50 (SNB-19) | GI50 (NCI-H23) | GI50 (HL-60) | GI50 (MOLT-4) | GI50 (HCC 2998) | GI50 (PC-3) | GI50 (CAKI-1)
1 | CC/C=C/C(=O)CC(O)(C(F)(F)F)C(F)(F)F | > 100 µM (inactive) | 54 µM (inactive) | > 100 µM (inactive) | > 100 µM (inactive) | > 100 µM (inactive) | > 100 µM (inactive) | 32.4 µM (inactive) | > 100 µM (inactive) | 22.5 µM (inactive) | > 100 µM (inactive) | > 100 µM (inactive) | > 100 µM (inactive) | > 100 µM (inactive) | > 100 µM (inactive) | > 100 µM (inactive) | 92.7 µM (inactive) | > 100 µM (inactive) | > 100 µM (inactive) | – | –
2 | CNC(=O)/C(C#N)=C(\N)N1CCCC1 | > 100 µM (inactive) | > 100 µM (inactive) | > 100 µM (inactive) | – | – | > 100 µM (inactive) | – | – | > 100 µM (inactive) | > 100 µM (inactive) | > 100 µM (inactive) | > 100 µM (inactive) | > 100 µM (inactive) | > 100 µM (inactive) | > 100 µM (inactive) | > 100 µM (inactive) | > 100 µM (inactive) | > 100 µM (inactive) | > 100 µM (inactive) | > 100 µM (inactive)
3 | COc1cc2cc(C(=O)N3CC(CCl)c4ccc(O)cc43)[nH]c2c(OC)c1OC (configuration not stated) | < 0.0001 µM (active) | 0.0198 µM (active) | 0.00196 µM (active) | 0.000285 µM (active) | < 0.0001 µM (active) | 0.00263 µM (active) | 0.0292 µM (active) | 0.00491 µM (active) | < 0.01 µM (active) | 0.0168 µM (active) | 0.00344 µM (active) | < 0.0001 µM (active) | 0.0513 µM (active) | 0.00406 µM (active) | 0.00199 µM (active) | 0.00647 µM (active) | 0.000865 µM (active) | 0.000593 µM (active) | – | 0.00218 µM (active)
4 | COc1ccc(/C(=N\NC(=S)NN)C(c2ccc(OC)cc2)C2C(=O)Oc3ccccc32)cc1 (configuration not stated) | > 10 µM (inactive) | > 10 µM (inactive) | 56.2 µM (inactive) | > 10 µM (inactive) | – | – | > 10 µM (inactive) | > 10 µM (inactive) | > 10 µM (inactive) | > 10 µM (inactive) | > 10 µM (inactive) | > 10 µM (inactive) | > 10 µM (inactive) | > 10 µM (inactive) | > 10 µM (inactive) | > 10 µM (inactive) | – | 9.31 µM (inactive) | – | > 10 µM (inactive)
5 | COC1=CC(=O)C2C(C1=O)[C@@H]1c3ccccc3C[C@H]21 (some centres not stated) | > 100 µM (inactive) | > 100 µM (inactive) | > 100 µM (inactive) | > 100 µM (inactive) | – | – | > 100 µM (inactive) | > 100 µM (inactive) | > 100 µM (inactive) | – | > 100 µM (inactive) | > 100 µM (inactive) | > 100 µM (inactive) | > 100 µM (inactive) | > 100 µM (inactive) | > 100 µM (inactive) | > 100 µM (inactive) | > 100 µM (inactive) | – | > 100 µM (inactive)
6 | OC[C@H]1C[C@@H]2Cc3ccccc3N2N1 | > 100 µM (inactive) | – | > 100 µM (inactive) | > 100 µM (inactive) | – | > 100 µM (inactive) | > 100 µM (inactive) | > 100 µM (inactive) | > 100 µM (inactive) | > 100 µM (inactive) | > 100 µM (inactive) | > 100 µM (inactive) | > 100 µM (inactive) | > 100 µM (inactive) | > 100 µM (inactive) | > 100 µM (inactive) | > 100 µM (inactive) | > 100 µM (inactive) | > 100 µM (inactive) | > 100 µM (inactive)
7 | O=C1C=C(N2CCCC2)C(=O)c2c(O)ccc(O)c21 | > 10 µM (inactive) | > 10 µM (inactive) | > 10 µM (inactive) | > 10 µM (inactive) | 9.57 µM (inactive) | – | > 10 µM (inactive) | – | > 10 µM (inactive) | > 10 µM (inactive) | 3.93 µM (inactive) | > 10 µM (inactive) | > 10 µM (inactive) | > 10 µM (inactive) | – | 4.52 µM (inactive) | 2.37 µM (inactive) | > 10 µM (inactive) | > 10 µM (inactive) | –
8 | Cc1cc(C)nc(/C(=N\NC(N)=O)C(=O)Nc2nc3ccc(C)cc3s2)c1 | > 100 µM (inactive) | > 100 µM (inactive) | > 100 µM (inactive) | > 100 µM (inactive) | – | – | > 100 µM (inactive) | > 100 µM (inactive) | > 100 µM (inactive) | > 100 µM (inactive) | > 100 µM (inactive) | > 100 µM (inactive) | > 100 µM (inactive) | > 100 µM (inactive) | > 100 µM (inactive) | > 100 µM (inactive) | > 100 µM (inactive) | > 100 µM (inactive) | – | > 100 µM (inactive)
9 | Clc1ccc(-c2ccc(-c3nn4c(CNc5ccccc5)nnc4s3)o2)c(Cl)c1 | > 100 µM (inactive) | > 100 µM (inactive) | > 100 µM (inactive) | 60.1 µM (inactive) | – | 58.1 µM (inactive) | 29.2 µM (inactive) | > 100 µM (inactive) | > 100 µM (inactive) | 97.3 µM (inactive) | > 100 µM (inactive) | 33.5 µM (inactive) | 41.5 µM (inactive) | > 100 µM (inactive) | 53.6 µM (inactive) | 44.3 µM (inactive) | 24 µM (inactive) | – | 54.2 µM (inactive) | > 100 µM (inactive)
10 | C#CC(C)(C)OCCCCOc1cc(O)c2c(=O)c3ccccc3n(C)c2c1 | > 100 µM (inactive) | > 100 µM (inactive) | > 100 µM (inactive) | > 100 µM (inactive) | – | – | > 100 µM (inactive) | > 100 µM (inactive) | 91 µM (inactive) | > 100 µM (inactive) | > 100 µM (inactive) | > 100 µM (inactive) | > 100 µM (inactive) | > 100 µM (inactive) | > 100 µM (inactive) | > 100 µM (inactive) | – | 66.1 µM (inactive) | – | > 100 µM (inactive)
11 | Cn1cnc([N+](=O)[O-])c1Sc1nc(N)nc2c1ncn2C1OC(CO)C(O)C1O (configuration not stated) | 9.04 µM (inactive) | 5.12 µM (inactive) | 28 µM (inactive) | 3.46 µM (inactive) | – | 1.5 µM (inactive) | 1.33 µM (inactive) | 16.4 µM (inactive) | – | 15.8 µM (inactive) | 17.8 µM (inactive) | 3.78 µM (inactive) | 8.39 µM (inactive) | 44.6 µM (inactive) | 4.16 µM (inactive) | 9.44 µM (inactive) | 5 µM (inactive) | 2.77 µM (inactive) | 1.52 µM (inactive) | 6.19 µM (inactive)
12 | CC(=O)C1=C(C)O[C@@H]2O[C@H](COCc3ccccc3)[C@@H](OCc3ccccc3)[C@H](O)[C@@H]2S1 | 23.3 µM (inactive) | 22 µM (inactive) | 27.7 µM (inactive) | 13.8 µM (inactive) | – | 19 µM (inactive) | 22.9 µM (inactive) | 24.7 µM (inactive) | 25.1 µM (inactive) | 18.8 µM (inactive) | 18.3 µM (inactive) | 13.8 µM (inactive) | 25.1 µM (inactive) | 38 µM (inactive) | 20.4 µM (inactive) | 16.4 µM (inactive) | 14 µM (inactive) | – | 26.2 µM (inactive) | 49.3 µM (inactive)
13 | CC1CC(N)=Nc2ccccc2N1 (configuration not stated) | > 100 µM (inactive) | > 100 µM (inactive) | > 100 µM (inactive) | > 100 µM (inactive) | – | > 100 µM (inactive) | – | > 100 µM (inactive) | – | > 100 µM (inactive) | 58.2 µM (inactive) | > 100 µM (inactive) | > 100 µM (inactive) | > 100 µM (inactive) | > 100 µM (inactive) | > 100 µM (inactive) | > 100 µM (inactive) | > 100 µM (inactive) | > 100 µM (inactive) | > 100 µM (inactive)
14 | C[C@@H]1O[C@@H](O[C@H]2CC[C@]3(C=O)[C@H]4CC[C@]5(C)[C@@H](C6=CC(=O)OC6)CC[C@]5(O)[C@@H]4CC[C@]3(O)C2)[C@H](O)[C@H](O)[C@H]1O [CONVALLATOXIN] | 9.73e-06 µM (active) | < 0.01 µM (active) | 6.4e-05 µM (active) | 2.73e-05 µM (active) | – | 4.23e-05 µM (active) | 4.83e-05 µM (active) | 7.28e-06 µM (active) | 5.74e-05 µM (active) | 5.35e-05 µM (active) | 3.71e-05 µM (active) | 1.67e-05 µM (active) | 9.51e-06 µM (active) | 0.0178 µM (active) | 9.93e-06 µM (active) | 3.42e-05 µM (active) | 6.01e-06 µM (active) | < 0.01 µM (active) | 2.62e-05 µM (active) | 1.23e-05 µM (active)
15 | N#C/C(=C\c1cc(O)cc(O)c1)C(N)=O | > 100 µM (inactive) | > 100 µM (inactive) | > 100 µM (inactive) | > 100 µM (inactive) | – | – | > 100 µM (inactive) | > 100 µM (inactive) | > 100 µM (inactive) | > 100 µM (inactive) | > 100 µM (inactive) | > 100 µM (inactive) | > 100 µM (inactive) | > 100 µM (inactive) | > 100 µM (inactive) | > 10 µM (inactive) | > 100 µM (inactive) | > 100 µM (inactive) | – | > 100 µM (inactive)
16 | c1ccc2c(C3NCCc4nc[nH]c43)cccc2c1 (configuration not stated) | > 100 µM (inactive) | > 100 µM (inactive) | > 100 µM (inactive) | > 100 µM (inactive) | – | – | > 100 µM (inactive) | > 100 µM (inactive) | > 100 µM (inactive) | > 100 µM (inactive) | – | > 100 µM (inactive) | – | – | > 100 µM (inactive) | – | > 100 µM (inactive) | > 100 µM (inactive) | – | > 100 µM (inactive)
